Source: patent publication US20060240048A1 (priority 2002, published 2006)

Target: T1, human cannabinoid CB2 receptor (Homo sapiens, UniProt P34972)
T1 construct: expressed in transfected cells; host or cells: Saccharomyces cerevisiae strain MMY23
Test: Cannabinoid CB2 receptor agonist activity, yeast reporter assay (FDGlu fluorescence);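 as to Emax: 100% equals maximal response of reference agonist HU210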
Format: cell-based
Details: for Emax: read-out: efficacy value (Emax) at the cloned human cannabinoid CB2 receptor

T1 sequence (P34972 whole entry): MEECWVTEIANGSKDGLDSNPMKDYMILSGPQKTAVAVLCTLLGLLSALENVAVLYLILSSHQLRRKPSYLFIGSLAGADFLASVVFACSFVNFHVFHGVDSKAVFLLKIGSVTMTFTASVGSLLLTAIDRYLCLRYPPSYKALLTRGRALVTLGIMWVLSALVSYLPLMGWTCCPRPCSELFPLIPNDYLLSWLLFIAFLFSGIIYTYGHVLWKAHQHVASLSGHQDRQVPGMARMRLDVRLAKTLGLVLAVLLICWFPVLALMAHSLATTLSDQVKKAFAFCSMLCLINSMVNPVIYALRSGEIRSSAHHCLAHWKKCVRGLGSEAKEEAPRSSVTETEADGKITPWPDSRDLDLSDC

O=C(NCC1CCCCCC1)c1cnc(Nc2cc(Cl)cc(Cl)c2)cc1C(F)(F)F [Example 175, N-Cycloheptylmethyl-6-(3,5-dichloro-phenyiamino)-4-trifluoromethyl-nicotinamide]
Emax: > 50%

O=C(NCC1CCOCC1)c1ccc(Nc2cccc(Cl)c2)nc1C(F)(F)F [Example 204, 6-(3-Chloro-phenylamino)-N-(tetrahydro-pyran-4-ylmethyl)-2-trifluoromethyl-nicotinamide]
EC50: < 300 nM
Emax: > 50%

CC(C)c1nc(Nc2cccc(Cl)c2)ccc1C(=O)NCC1CCOCC1 [Example 208, 6-(3-Chloro-phenylamino)-2-isopropyl-N-(tetrahydro-pyran-4-ylmethyl)-nicotinamide]
EC50: < 300 nM
Emax: > 50%

CC(C)c1nc(Nc2cccc(Cl)c2)ccc1C(=O)NCC1CCS(=O)(=O)C1 (stereo not drawn) [Example 209, 6-(3-Chloro-phenylamino)-N-(1,1-dioxo-tetrahydrothiophen-3-ylmethyl)-2-isopropyl-nicotinamide]
EC50: < 300 nM
Emax: > 50%

CC(C)c1nc(Nc2cccc(Cl)c2)ccc1C(=O)NCC1CCCC1 [Example 210, 6-(3-Chloro-phenylamino)-N-cyclopentylmethyl-2-isopropyl-nicotinamide]
EC50: < 300 nM
Emax: > 50%

CC(C)c1nc(Nc2cccc(Cl)c2)ccc1C(=O)NCC1CCCCC1 [Example 211, 6-(3-Chloro-phenylamino)-N-cyclohexylmethyl-2-isopropyl-nicotinamide]
EC50: < 300 nM
Emax: > 50%

CC(C)c1nc(Nc2ccc(Cl)cc2Cl)ccc1C(=O)NCC1CCC1 [Example 212, 6-(2,4-Dichloro-phenylamino)-N-cyclobutylmethyl-2-isopropyl-nicotinamide]
EC50: < 300 nM
Emax: > 50%

CC(C)c1nc(Nc2ccc(Cl)cc2Cl)ccc1C(=O)NCC1CCCC1 [Example 213, 6-(2,4-Dichloro-phenylamino)-N-cyclopentylmethyl-2-isopropyl-nicotinamide]
EC50: < 300 nM
Emax: > 50%

CC(C)c1nc(Nc2ccc(Cl)cc2Cl)ccc1C(=O)NCC1CCOCC1 [Example 214, 6-(2,4-Dichloro-phenylamino)-N-(tetrahydro-pyran-4-ylmethyl)-2-isopropyl-nicotinamide]
EC50: < 300 nM
Emax: > 50%

CC(C)c1nc(Nc2ccc(Cl)cc2Cl)ccc1C(=O)NCC1CCS(=O)(=O)C1 (stereo not drawn) [Example 215, 6-(2,4-Dichloro-phenylamino)-N-(1,1-tetrahydrothiophen-3-ylmethyl)-2-isopropyl-nicotinamide]
EC50: < 300 nM
Emax: > 50%

CC(C)c1nc(Nc2cccc(F)c2)ccc1C(=O)NCC1CCC1 [Example 216, 6-(3-Fluoro-phenylamino)-N-cyclobutylmethyl-2-isopropyl-nicotinamide]
EC50: < 300 nM
Emax: > 50%

CC(C)c1nc(Nc2cccc(F)c2)ccc1C(=O)NCC1CCCC1 [Example 217, 6-(3-Fluoro-phenylamino)-N-cyclopentylmethyl-2-isopropyl-nicotinamide]
EC50: < 300 nM
Emax: > 50%

CC(C)c1nc(Nc2cccc(F)c2)ccc1C(=O)NCC1CCOCC1 [Example 218, 6-(3-Fluoro-phenylamino)-N-(tetrahydro-pyran-4-ylmethyl)-2-isopropyl-nicotinamide]
EC50: < 300 nM
Emax: > 50%

CC(C)c1nc(Nc2cccc(F)c2)ccc1C(=O)NCC1CCS(=O)(=O)C1 (stereo not drawn) [Example 219, 6-(3-Fluoro-phenylamino)-N-(1,1-dioxo-tetrahydrothiophen-3-ylmethyl)-2-isopropyl-nicotinamide]
EC50: < 300 nM
Emax: > 50%

Cc1cc(C#N)ccc1Nc1cc(C(C)C)c(C(=O)NCC2CCOCC2)cn1 [Example 220, 6-(4-Cyano-2-methyl-phenylamino)-4-isopropyl-N-(tetrahydro-pyran-4-ylmethyl)-nicotinamide]
EC50: < 300 nM
Emax: > 50%

CC(C)c1cc(Nc2cc(Cl)ccc2C#N)ncc1C(=O)NCC1CCOCC1 [Example 221, 6-(S-Chloro-2-cyano-phenylamino)-4-isopropyl-N-(tetrahydro-pyran-4-ylmethyl)-nicotinamide]
EC50: 300 to 1000 nM
Emax: < 30%

CC(C)c1cc(Nc2cccc(Cl)c2)ncc1C(=O)NCC1CCS(=O)(=O)C1 (stereo not drawn) [Example 223, 6-(3-Chloro-phenylamino)-N-(1,1-dioxo-tetrahydro-1/^6-thiophen-3-ylmethyl)-4-isopropyl-nicotinamide]
EC50: < 300 nM
Emax: > 50%

CC(C)c1cc(Nc2cccc(OC(F)(F)F)c2)ncc1C(=O)NCC1CCC1 [Example 224, N-Cyclobutylmethyl-4-isopropyl-6-(3-trifluoromethoxy-phenylamino)-nicotinamide]
EC50: < 300 nM
Emax: > 50%

Cc1ccc(Br)cc1Nc1cc(C(C)C)c(C(=O)NCC2CCOCC2)cn1 [Example 234, 6-(5-Bromo-2-methyl-phenylamino)-4-isopropyl-N-(tetrahydro-pyran-4-ylmethyl)-nicotinamide]
EC50: < 300 nM
Emax: > 50%

CC(C)c1cc(Nc2cc(F)ccc2Br)ncc1C(=O)NCC1CCOCC1 [Example 235, 6-(2-Bromo-5-fluoro-phenylamino)-4-isopropyl-N-(tetrahydro-pyran-4-ylmethyl)-nicotinamide]
EC50: < 300 nM
Emax: > 50%

CC(C)c1cc(Nc2cc(C(F)(F)F)ccc2F)ncc1C(=O)NCC1CCOCC1 [Example 236, 6-(2-Fluoro-5-trifluoromethyl-phenylamino)-4-isopropyl-N-(tetrahydro-pyran-4-ylmethyl)-nicotinamide]
EC50: < 300 nM
Emax: > 50%

CC(C)c1cc(Nc2cc(C(F)(F)F)ccc2Cl)ncc1C(=O)NCC1CCOCC1 [Example 237, 6-(2-Chloro-5-trifluoromethyl-phenylamino)-4-isopropyl-N-(tetrahydro-pyran-4-ylmethyl)-nicotinamide]
EC50: < 300 nM
Emax: > 50%

CC(C)c1cc(Nc2cc(C(F)(F)F)ccc2Br)ncc1C(=O)NCC1CCOCC1 [Example 238, 6-(2-Bromo-5-trifluoromethyl-phenytamino)-4-isopropyl-N-(tetrahydro-pyran-4-ylmethyl)-nicotinamide]
EC50: < 300 nM
Emax: > 50%

CC(C)c1cc(Nc2ccc(C#N)c(Br)c2)ncc1C(=O)NCC1CCOCC1 [Example 239, 6-(3-Bromo-4-cyano-phenylamino)-4-isopropyl-N-(tetrahydro-pyran-4-ylmethyl)-nicotinamide]
EC50: < 300 nM
Emax: > 50%

CC(C)c1cc(Nc2ccc(OC(F)(F)F)cc2Br)ncc1C(=O)NCC1CCOCC1 [Example 240, 6-(2-Bromo-4-trifluoromethoxy-phenylamino)-4-isopropyl-N-(tetrahydro-pyran-4-ylmethyl)-nicotinamide]
EC50: < 300 nM
Emax: > 50%

Cc1c(Cl)cccc1Nc1cc(C(C)C)c(C(=O)NCC2CCOCC2)cn1 [Example 241, 6-(3-Chloro-2-methyl-phenylamino)-4-isopropyl-N-(tetrahydro-pyran-4-ylmethyl)-nicotinamide]
EC50: < 300 nM
Emax: > 50%

CC(C)c1cc(Nc2cc(F)cc(F)c2)ncc1C(=O)NCC1CCOCC1 [Example 242, 6-(3,5-Difluoro-phenylamino)-4-isopropyl-N-(tetrahydro-pyran-4-ylmethyl)-nicotinamide]
EC50: < 300 nM
Emax: > 50%

CC(C)c1cc(Nc2ccc(F)cc2Cl)ncc1C(=O)NCC1CCOCC1 [Example 243, 6-(2-Chloro-4-fluoro-phenylamino)-4-isopropyl-N-(tetrahydro-pyran-4-ylmethyl)-nicotinamide]
EC50: < 300 nM
Emax: > 50%

Cc1cc(Cl)ccc1Nc1cc(C(C)C)c(C(=O)NCC2CCOCC2)cn1 [Example 244, 6-(4-Chloro-2-methyl-phenylamino)-4-isopropyl-N-(tetrahydro-pyran-4-ylmethyl)-nicotinamide]
EC50: < 300 nM
Emax: > 50%

CC(C)c1cc(Nc2cccc(C(F)(F)F)c2F)ncc1C(=O)NCC1CCCC1 [Example 245, 6-(2-Fluoro-3-trifluoromethyl-phenylamino)-N-cyclopentylmethyl-4-isopropyl-nicotinamide]
EC50: < 300 nM
Emax: > 50%

Cc1cc(Cl)ccc1Nc1cc(C(C)C)c(C(=O)NCC2CCCC2)cn1 [Example 246, 6-(2-Methyl-4-chloro-phenylamino)-N-cyclopentylmethyl-4-isopropyl-nicotinamide]
EC50: < 300 nM
Emax: > 50%

CC(C)c1cc(Nc2ccc(C#N)c(Cl)c2)ncc1C(=O)NCC1CCCC1 [Example 247, 6-(3-Chloro-4-cyano-phenytamino)-N-cyclopentylmethyl-4-isopropyl-nicotinamide]
EC50: < 300 nM
Emax: > 50%

CC(C)c1cc(Nc2ccc(Br)cc2Cl)ncc1C(=O)NCC1CCCC1 [Example 248, 6-(4-bromo-2-chlorophenylamino)-N-cyclopentylmethyl-4-isopropyl-nicotinamide]
EC50: < 300 nM
Emax: > 50%

CC(C)c1cc(Nc2ccc(F)cc2F)ncc1C(=O)NCC1CCC1 [Example 249, N-Cyclobutylmethyl-6-(2,4-difluoro-phenylamino)-4-isopropyl-nicotinamide]
EC50: < 300 nM
Emax: > 50%

CC(C)c1cc(Nc2ccc(Cl)cc2Cl)ncc1C(=O)NCC1CCC1 [Example 250, N-Cyclobutylmethyl-6-(2,4-dichloro-phenylamino)-4-isopropyl-nicotinamide]
EC50: < 300 nM
Emax: > 50%

CC(C)c1cc(Nc2ccc(Cl)c(Cl)c2)ncc1C(=O)NCC1CCC1 [Example 251, N-Cyclobutylmethyl-6-(3,4-dichtoro-phenylamino)-4-isopropyl-nicotinamide]
EC50: < 300 nM
Emax: > 50%

CC(C)c1cc(Nc2cccc(Cl)c2Cl)ncc1C(=O)NCC1CCC1 [Example 252, N-Cyclobutylmethyl-6-(2,3-dichloro-phenylamino)-4-isopropyl-nicotinamide]
EC50: < 300 nM
Emax: > 50%

CC(C)c1cc(Nc2ccc(F)cc2Cl)ncc1C(=O)NCC1CCC1 [Example 253, 6-(2-Chloro-4-fluoro-phenylamino)-N-cyclobutylmethyl-4-isopropyl-nicotinamide]
EC50: < 300 nM
Emax: > 50%
